Measurements reported in article PMC7293270 (Scientific Reports, 2020).

Key:
[1] = Plasma pharmacokinetics of sorafenib with RT, with or without CsA pretreatment, in freely moving rats; assay type: in vivo, Sprague-Dawley rats; conditions: for Cmax / Tmax / AUC(0-t): Sprague-Dawley, rat, plasma, 40 mg/kg
Procedure: A freely moving rat model was designed for the current study[21] (Fig. 1A). Experimental rats were anesthetized with 1 g/mL urethane and 0.1 g/mL α-chloralose (1 mL/kg by intraperitoneal [i.p.] injection), and polyethylene tubes were then implanted in the right jugular vein for intravenous (i.v.) fluid administration. The right jugular vein was catheterized for blood sampling. The catheter traversed the subcutaneous tissue and was fixed in the dorsal neck region. After surgery, the rats were placed in an experimental cage and allowed to recover for 1 day. During the recovery period, the rats were kept warm under a light. Then, the rats were anesthetized and immobilized on a board while undergoing CT for localization of the whole liver (conventional technique, Fig. 1B) or a central area of 1.5 × 1.5 cm (SBRT technique, Fig. 1C).
The rats were randomly divided into five groups of six rats per group.
The rats were pretreated with CsA (20 mg/kg, i.p.). […] Blood samples were obtained according to a preset schedule.
Blood samples (150 µL) were withdrawn from the jugular vein with a fraction collector at 15, 30, 45, and 60 min and at 1.5, 2, 2.5, 3, 3.5 and 4 hr after drug administration. The blood samples were immediately centrifuged at 4200 × g for 10 min. The resulting plasma (50 µL) was added to 1 mL of ethyl acetate in a clean tube, vortexed for 5 min, and centrifuged at 5900 × g for 10 min. After centrifugation, the upper organic layer containing ethyl acetate was transferred to a new tube and evaporated to dryness under a nitrogen flow.
Chromatographic analysis was performed on a Model LC-20DAD HPLC system (Shimadzu, Tokyo, Japan) equipped with a Model SPD-M20A wavelength UV detector, a SIL-20AC autosampler, and an LC Solution data processing system. A […] C[18] column (50 × 2.1 mm, particle size 1.7 μm, Eclipse XDB; Agilent, Palo Alto, CA, USA) was used for HPLC separation. The mobile phase consisted of potassium dihydrogen phosphate (10 mM, pH = 3) and acetonitrile (55:45, v/v). The flow rate was set at 0.2 mL/min, and the injection volume was 5 μL. […] A peak controlled spectrum recording was selected with a range of 190–300 nm.
Pharmacokinetic parameters, including the area under the concentration vs. time curve (AUC), terminal elimination phase t1/2, Cmax, MRT, total plasma clearance and Vss, were calculated using the PK calculation software WinNonlin Standard Edition, version 1.1 (Scientific Consulting, Apex, NC, USA) using a compartmental method.

efflux transporter P-gp = conditions: cited from earlier work
HCC = conditions: cited from earlier work
[2] = cited from earlier work
[3] = test system: portal vein tumor thrombosis; assay: Retrospective review: PVTT recanalization in HCC patients treated with sorafenib plus conventional RT or SBRT; assay type: in vivo, human
Procedure: The need for informed consent was waived by the Institutional Review Board of the Far Eastern Memorial Hospital (FEMH-IRB-108025-E) and retrospective data were collected after receiving approval from the Institutional Review Board of the Far Eastern Memorial Hospital (FEMH-IRB-108025-E). All research was performed in accordance with relevant guidelines and regulations. All tumors were staged according to the American Joint Committee on Cancer (AJCC) Cancer Staging Manual, 7th edition. A total of 90 HCC patients with PVTT were identified. […] The patients who were treated with a radiation fraction size of <5 Gy and those treated with ≥5 Gy were grouped as the conventional and the SBRT group, respectively.

[4] = Organ distribution of sorafenib in rats; assay type: in vivo, Sprague-Dawley rats; conditions: for concentration at 6 h: Sprague-Dawley, rat, po, 40 mg/kg
Procedure: The brain, liver, heart, spleen, lung and kidney were collected and weighed. These collected samples were stored at −20 °C until analysis.
Thawed organ samples were homogenized in 50% aqueous acetonitrile (sample weight:volume ratio, 1:5), and the homogenate was then centrifuged at 13000 × g for 10 min at 4 °C. The supernatant was collected, placed in brown Eppendorf tubes, and stored at −20 °C until analysis. In brief, each organ sample (50 μL) was combined with 150 μL of IS solution (diethylstilbestrol) for protein precipitation. Finally, 20 μL of filtrate was injected into the HPLC system for analysis.

[5] = set-up: method as in earlier work; conditions: cited from earlier work
[6] = oral, CsA 20 mg/kg i.p. + RT2Gy, sorafenib 40 mg/kg 1 hr later
[7] = oral, CsA 20 mg/kg i.p. + RT2Gy, sorafenib 40 mg/kg 24 hr later
[8] = oral, CsA 20 mg/kg i.p. + RT9Gy, sorafenib 40 mg/kg 1 hr later
[9] = oral, CsA 20 mg/kg i.p. + RT9Gy, sorafenib 40 mg/kg 24 hr later
[10] = oral, CsA 20 mg/kg i.p. + sorafenib 40 mg/kg
[11] = po, RT2Gy, sorafenib 40 mg/kg 1 hr later
[12] = po, RT2Gy, sorafenib 40 mg/kg 24 hr later
[13] = po, RT9Gy, sorafenib 40 mg/kg 1 hr later
[14] = po, RT9Gy, sorafenib 40 mg/kg 24 hr later
[15] = po, sorafenib 40 mg/kg p.o. only (sham RT), rats
[16] = sorafenib + SBRT (fraction size ≥ 5 Gy), n = 18
[17] = sorafenib + conventional RT (fraction size <5 Gy), n = 25

Cmax [1, 6]: 1720 ± 960 ng/mL | Tmax [1, 6]: 3.3 h | Cmax [1, 7]: 7710 ± 3410 ng/mL | Tmax [1, 7]: 3.75 h | Cmax [1, 8]: 3740 ± 2170 ng/mL | Tmax [1, 8]: 3.33 h | Cmax [1, 9]: 5430 ± 3220 ng/mL | Tmax [1, 9]: 3.92 h | Cmax [1, 10]: 4690 ± 2310 ng/mL | Tmax [1, 10]: 4 h | Cmax [1, 11]: 10100 ± 5930 ng/mL | Tmax [1, 11]: 2.92 h | Cmax [1, 12]: 1890 ± 1080 ng/mL | Tmax [1, 12]: 3.4 h | AUC(0-t) ([1]; po, RT2Gy, sorafenib 40 mg/kg p.o. 1 hr later): 27800 ng·h/mL | AUC(0-t) ([1]; po, RT2Gy, sorafenib 40 mg/kg p.o. 24 hr later): 4950 ng·h/mL | Cmax [1, 13]: 12300 ± 6300 ng/mL | Tmax [1, 13]: 3.25 h | Cmax [1, 14]: 8690 ± 2730 ng/mL | Tmax [1, 14]: 3.08 h | AUC(0-t) ([1]; po, RT9Gy, sorafenib 40 mg/kg p.o. 1 hr later): 31500 ng·h/mL | AUC(0-t) ([1]; po, RT9Gy, sorafenib 40 mg/kg p.o. 24 hr later): 24300 ng·h/mL | AUC(0-t) ([1]; po, CsA 20 mg/kg i.p. + RT2Gy, sorafenib 40 mg/kg p.o. 1 hr later): 4630 ng·h/mL | AUC(0-t) ([1]; po, CsA 20 mg/kg i.p. + RT2Gy, sorafenib 40 mg/kg p.o. 24 hr later): 18600 ng·h/mL | AUC(0-t) ([1]; po, CsA 20 mg/kg i.p. + RT9Gy, sorafenib 40 mg/kg p.o. 1 hr later): 10100 ng·h/mL | AUC(0-t) ([1]; po, CsA 20 mg/kg i.p. + RT9Gy, sorafenib 40 mg/kg p.o. 24 hr later): 12900 ng·h/mL | AUC(0-t) ([1]; po, CsA 20 mg/kg i.p. + sorafenib 40 mg/kg p.o.): 13100 ng·h/mL | AUC(0-t) [1, 15]: 12000 ng·h/mL | Cmax [1, 15]: 4390 ± 2280 ng/mL | Tmax [1, 15]: 3.75 h | Increase in concentration of sorafenib ([1]; both concurrent and sequential RT9Gy regimens compared with sorafenib alone): more than 2 fold | Organ distribution vs sham group ([4]; RT2Gy and RT9Gy under the sequential regimen): did not differ significantly | Level of sorafenib in organs vs sham group ([4]; RT9Gy concurrent with sorafenib, all organs except the brain): significantly decreased | concentration at 6 h ([4]; brain): 140 ± 150 ng/g | concentration at 6 h ([4]; heart): 1200 ± 360 ng/g | concentration at 6 h ([4]; kidney): 1930 ± 750 ng/g | concentration at 6 h ([4]; liver): 4430 ± 1560 ng/g | concentration at 6 h ([4]; lung): 3200 ± 1000 ng/g | concentration at 6 h ([4]; spleen): 1420 ± 530 ng/g
Structure (SMILES): CNC(=O)c1cc(Oc2ccc(NC(=O)Nc3ccc(Cl)c(C(F)(F)F)c3)cc2)ccn1 [sorafenib, Sorafenib]
Binding to P-gp (efflux transporter P-gp): moderate affinity | P-gp substrate affinity (efflux transporter P-gp): moderate-affinity | Complete or partial response rate (HCC; HCC patients, combination of sorafenib and RT): 55% | Reduction of HCC tumor volume (HCC; case report, sorafenib + RT combination regimen): 39% | Reduction of AUC ([2]; average, concomitant administration of the CYP3A4 inducer rifampicin): 37% | Orally administered dose recovered as unchanged drug ([2]; by biliary excretion or lack of absorption): Approximately 50% | No response (recanalization) [3, 16]: 1/18 (5.6%) | Partial recanalization [3, 16]: 12/18 (66.7%) | Increase in complete recanalization, SBRT vs conventional RT ([3]; sorafenib + SBRT compared to sorafenib + conventional RT): 3 fold | No response (recanalization) [3, 17]: 10/25 (40.0%) | Partial recanalization [3, 17]: 13/25 (52.0%) | Permeability across the gastrointestinal (GI) epithelium [5]: high
